According to patent US4291053A, “Agent to be administered orally to domestic animals without cellulose digestion in the rumen” (Hoechst Aktiengesellschaft, priority 1976, dated 1981):
Values after ≈ are worked out from the molar mass of the structure shown. Where a name gives a salt, the structure may show the parent alone. Read-outs that look alike come from different tables or passages of the source. Values belong to the compound of their own block, whether it stands above or below them.

What was measured:
[1] = tested on: Treponema hyodysenteriae; assay: Minimum inhibiting concentration against Treponema hyodysenteriae, agar diffusion test with dilution series; assay type: cell-based; conditions: for MIC: Brachyspira hyodysenteriae, read-out: Minimum inhibiting concentration (MIC)
Experimental: In order to detect the surprising effect on Treponema hyodysenteriae, this microorganism was cultivated according to the method of Harris on a trypticase-soy-agar using an addition of horse blood of 5% in a CO2 /H2 atmosphere, and the minimum inhibiting concentration of Salinomycin was determined in the agar diffusion test, while using the corresponding dilution series, as compared against commercial preparations showing a particularly good effect in dysentery diseases.

[2] = tested on: specified microorganisms; conditions: antibacterial spectrum, J. Antibiotics 1974; cited from earlier work
[3] = Feeding test with Salinomycin as raw product: growth and feed efficiency in early weaned piglets (Example 2); assay type: in vivo; conditions: for statistical significance of the improvement (weight gain and feed efficiency): vs control; for Feed efficiency per animal, relative / Weight gain per animal, relative: relative to control
Experimental: A feeding test using Salinomycin as a raw product was carried out on 46 piglets weaned at an early age (4 weeks old) that were kept in sub-groups comprising 3 or 4 animals.
Initial weight: 9.8 kg on an average. The feed ration indicated in Example 1 served as basic feed.
4 Sub-groups comprising 15 animals altogether formed the untreated control group. 4 Sub-groups comprising 16 animals altogether were given 25 mg of Salinomycin as raw product per kg of feed, and 4sub-groups comprising 15 animals altogether were given 50 mg of Salinomycin per kg of feed in the form of the raw product. The test period was 8 weeks, with individual weighing at intervals of 2 weeks.

[4] = Feeding test with Salinomycin as mycelium: growth and feed efficiency in early weaned piglets (Example 3); assay type: in vivo; conditions: for Feed efficiency per animal, relative / Weight gain per animal, relative: relative to control
Experimental: A feeding test using Salinomycin as a mycelium was carried out on 47 piglets weaned at an early age (4 weeks old) which were kept in sub-groups comprising 4 and 3 animals, respectively. The initial weight was 9.8 kg on an average. The feed ration indicated in Example 1 served as basic feed.
4 Sub-groups comprising 15 animals altogether formed the untreated control group. 4 Sub-groups comprising 16 animals altogether were given 50 mg of Salinomycin as a mycelium per kg of feed, and 4 sub-groups comprising 16 animals altogether were given 50 mg of a comparison preparation A (5-Nitroimidazol) per kg of feed. The test period was 8 weeks, with individual weighing at intervals of 2 weeks.

[5] = Piglet test S 83/75: incidence of diarrhea in feeding test (Example 1); assay type: in vivo, piglets
Experimental: A feeding test using Salinomycin was carried out on 78 piglets which were kept in boxes with 4 (or 3) animals each. At the beginning of the test, the animals were about 4 weeks old. Four replicates formed one group, and the following treatments were carried out:
1st group: untreated control group
2nd group: Salinomycin as raw product 25 mg/kg of fodder
3rd group: Salinomycin as raw product 50 mg/kg of fodder
4th group: Salinomycin as mycelium 50 mg/kg of fodder
5th group: comparison preparation A 50 mg/kg of fodder (5-Nitromidazol)
The basic feed had the following composition:
The occurrence of diarrhea in the individual boxes (sub-groups) was registered in the test periods of 14 days each and in the total test run of 56 days.

[6] = trypticase-soy-agar with 5% horse blood, CO2/H2 atmosphere
[7] = raw product 25 ppm, 8 weeks, ++ 99% significance
[8] = raw product 50 ppm, 8 weeks, +++ 99.9% significance
[9] = 50 mg per kg of feed as mycelium, 8 weeks
[10] = 50 ppm (Salinomycin as mycelium), 2 weeks
[11] = 50 ppm (Salinomycin as mycelium), 4 weeks
[12] = 50 ppm (Salinomycin as mycelium), 6 weeks
[13] = 50 ppm (Salinomycin as mycelium), 8 weeks

MIC [1, 6]: 2 µg/mL (≈ 11.8 µM)
Compound: CC(C)c1ncc([N+](=O)[O-])n1C [Ipronidazol]

Compound: CN(C)[C@@H]1C(O)=C(C(N)=O)C(=O)[C@@]2(O)C(O)=C3C(=O)c4c(O)cccc4[C@@](C)(O)[C@H]3C[C@@H]12 [Tetracycline-HCl]
MIC [1]: 50 µg/mL

MIC [1, 6]: 5 µg/mL (≈ 35.4 µM)
Compound: Cc1ncc([N+](=O)[O-])n1C [Dimethridazol]

Compound: CN(C)[C@@H]1C(=O)C(C(N)=O)=C(O)[C@@]2(O)C(=O)C3=C(O)c4c(O)cccc4[C@@](C)(O)[C@H]3[C@H](O)[C@@H]12 [Oxytetracycline]
MIC [1]: 100 µg/mL (≈ 217 µM)

Compound: C[n+]1c2cc(N)ccc2cc2ccc(N)cc21.[Cl-] [3,6-Diamino-10-methyl-acridinium chloride]
MIC [1]: 100 µg/mL

Compound: CC[C@H]1OC(=O)[C@H](C)[C@@H](O[C@H]2C[C@@](C)(OC)[C@@H](O)[C@H](C)O2)[C@H](C)[C@@H](O[C@@H]2O[C@H](C)C[C@H](N(C)C)[C@H]2O)[C@](C)(O)C[C@@H](C)C(=O)[C@H](C)[C@@H](O)[C@]1(C)O [Erythromycin]
MIC [1]: > 100 µg/mL

Compound: CC[C@H]1OC(=O)C[C@@H](O)[C@H](C)[C@@H](O[C@@H]2O[C@H](C)[C@@H](O[C@H]3C[C@@](C)(O)[C@@H](O)[C@H](C)O3)[C@H](N(C)C)[C@H]2O)[C@@H](CC=O)C[C@@H](C)C(=O)/C=C/C(C)=C/[C@@H]1CO[C@@H]1O[C@H](C)[C@@H](O)[C@@H](OC)[C@H]1OC [Tylosin]
MIC [1]: > 100 µg/mL

Compound: CC[C@@H](C(=O)[C@@H](C)[C@@H](O)[C@H](C)[C@@H]1O[C@@H]([C@@H](CC)C(=O)O)CC[C@@H]1C)[C@H]1O[C@]2(C=C[C@@H](O)[C@]3(CC[C@@](C)([C@H]4CC[C@](O)(CC)[C@H](C)O4)O3)O2)[C@H](C)C[C@@H]1C [Salinomycin]
MIC [1]: 0.05 µg/mL (≈ 0.0666 µM) | effect on Treponema hyodysenteriae ([1]; compared against commercial preparations, Table 1): superior effect | effect against the specified microorganisms [2]: only an insiginificant or moderate effect | statistical significance of the improvement (weight gain and feed efficiency) ([3]; raw product 25 mg per kg of feed): 99% | statistical significance of the improvement (weight gain and feed efficiency) ([3]; raw product 50 mg per kg of feed): 99.9% | Daily weight gain per animal ([3]; raw product 25 ppm, 2 weeks): 171 g | Feed efficiency per animal, absolute ([3]; raw product 25 ppm, 2 weeks): 1.900 | Weight gain per animal, absolute ([3]; raw product 25 ppm, 2 weeks): 2.4 kg | Feed efficiency per animal, relative ([3]; raw product 25 ppm, 2 weeks): 95.8% | Weight gain per animal, relative ([3]; raw product 25 ppm, 2 weeks): 104.3% | Daily weight gain per animal ([3]; raw product 25 ppm, 4 weeks): 250 g | Feed efficiency per animal, absolute ([3]; raw product 25 ppm, 4 weeks): 1.800 | Weight gain per animal, absolute ([3]; raw product 25 ppm, 4 weeks): 7.0 kg | Feed efficiency per animal, relative ([3]; raw product 25 ppm, 4 weeks): 95.7% | Weight gain per animal, relative ([3]; raw product 25 ppm, 4 weeks): 104.6% | Daily weight gain per animal ([3]; raw product 25 ppm, 6 weeks): 317 g | Feed efficiency per animal, absolute ([3]; raw product 25 ppm, 6 weeks): 1.802 | Weight gain per animal, absolute ([3]; raw product 25 ppm, 6 weeks): 13.0 kg | Feed efficiency per animal, relative ([3]; raw product 25 ppm, 6 weeks): 96.9% | Weight gain per animal, relative ([3]; raw product 25 ppm, 6 weeks): 103.3% | Daily weight gain per animal ([3]; raw product 25 ppm, 8 weeks): 380 g | Feed efficiency per animal, absolute ([3]; raw product 25 ppm, 8 weeks): 1.898 | Weight gain per animal, absolute ([3]; raw product 25 ppm, 8 weeks): 21.3 kg | Feed efficiency per animal, relative [3, 7]: 96.2% | Weight gain per animal, relative [3, 7]: 103.8% | Daily weight gain per animal ([3]; raw product 50 ppm, 2 weeks): 171 g | Feed efficiency per animal, absolute ([3]; raw product 50 ppm, 2 weeks): 1.900 | Weight gain per animal, absolute ([3]; raw product 50 ppm, 2 weeks): 2.4 kg | Feed efficiency per animal, relative ([3]; raw product 50 ppm, 2 weeks): 95.8% | Weight gain per animal, relative ([3]; raw product 50 ppm, 2 weeks): 104.3% | Daily weight gain per animal ([3]; raw product 50 ppm, 4 weeks): 257 g | Feed efficiency per animal, absolute ([3]; raw product 50 ppm, 4 weeks): 1.750 | Weight gain per animal, absolute ([3]; raw product 50 ppm, 4 weeks): 7.2 kg | Feed efficiency per animal, relative ([3]; raw product 50 ppm, 4 weeks): 93.0% | Weight gain per animal, relative ([3]; raw product 50 ppm, 4 weeks): 107.5% | Daily weight gain per animal ([3]; raw product 50 ppm, 6 weeks): 337 g | Feed efficiency per animal, absolute ([3]; raw product 50 ppm, 6 weeks): 1.698 | Weight gain per animal, absolute ([3]; raw product 50 ppm, 6 weeks): 13.8 kg | Feed efficiency per animal, relative ([3]; raw product 50 ppm, 6 weeks): 91.3% | Weight gain per animal, relative ([3]; raw product 50 ppm, 6 weeks): 109.8% | Daily weight gain per animal ([3]; raw product 50 ppm, 8 weeks): 396 g | Feed efficiency per animal, absolute ([3]; raw product 50 ppm, 8 weeks): 1.821 | Weight gain per animal, absolute ([3]; raw product 50 ppm, 8 weeks): 22.2 kg | Feed efficiency per animal, relative [3, 8]: 92.3% | Weight gain per animal, relative [3, 8]: 108.2% | statistical significance of the improvement of the feed efficiency [4, 9]: 99% | statistical significance of the improvement of the weight development [4, 9]: 99.9% | Daily weight gain per animal [4, 10]: 164 g | Feed efficiency per animal, absolute [4, 10]: 1.983 | Weight gain per animal, absolute [4, 10]: 2.3 kg | Feed efficiency per animal, relative [4, 10]: 100.0% | Weight gain per animal, relative [4, 10]: 100.0% | Daily weight gain per animal [4, 11]: 261 g | Feed efficiency per animal, absolute [4, 11]: 1.726 | Weight gain per animal, absolute [4, 11]: 7.3 kg | Feed efficiency per animal, relative [4, 11]: 91.8% | Weight gain per animal, relative [4, 11]: 109.2% | Daily weight gain per animal [4, 12]: 332 g | Feed efficiency per animal, absolute [4, 12]: 1.723 | Weight gain per animal, absolute [4, 12]: 13.6 kg | Feed efficiency per animal, relative [4, 12]: 92.6% | Weight gain per animal, relative [4, 12]: 108.1% | Daily weight gain per animal [4, 13]: 393 g | Feed efficiency per animal, absolute [4, 13]: 1.837 | Weight gain per animal, absolute [4, 13]: 22.0 kg | Feed efficiency per animal, relative ([4]; 50 ppm (Salinomycin as mycelium, ++ 99% significance), 8 weeks): 93.2% | Weight gain per animal, relative ([4]; 50 ppm (Salinomycin as mycelium, +++ 99.9% significance), 8 weeks): 107.4% | Incidence of diarrhea, per cent of test days ([5]; 50 ppm (Salinomycin as mycelium), 1st and 2nd week): 19.6% | Incidence of diarrhea in test days ([5]; 50 ppm (Salinomycin as mycelium), 1st and 2nd week, of 56 test days): 11 days | Incidence of diarrhea, per cent of test days ([5]; 50 ppm (Salinomycin as mycelium), 1st through 8th week): 10.7% | Incidence of diarrhea in test days ([5]; 50 ppm (Salinomycin as mycelium), 1st through 8th week, of 224 test days): 24 days | Incidence of diarrhea, per cent of test days ([5]; 50 ppm (Salinomycin as mycelium), 3rd and 4th week): 5.4% | Incidence of diarrhea in test days ([5]; 50 ppm (Salinomycin as mycelium), 3rd and 4th week, of 56 test days): 3 days | Incidence of diarrhea, per cent of test days ([5]; 50 ppm (Salinomycin as mycelium), 5th and 6th week): 7.1% | Incidence of diarrhea in test days ([5]; 50 ppm (Salinomycin as mycelium), 5th and 6th week, of 56 test days): 4 days | Incidence of diarrhea, per cent of test days ([5]; 50 ppm (Salinomycin as mycelium), 7th and 8th week): 10.7% | Incidence of diarrhea in test days ([5]; 50 ppm (Salinomycin as mycelium), 7th and 8th week, of 56 test days): 6 days | influence on the incidence of diarrhea ([5]; depending on the dosage, against untreated control and comparison preparation): very good influence on the incidence of diarrhea | Incidence of diarrhea, per cent of test days ([5]; raw product 25 ppm, 1st and 2nd week): 48.2% | Incidence of diarrhea in test days ([5]; raw product 25 ppm, 1st and 2nd week, of 56 test days): 27 days | Incidence of diarrhea, per cent of test days ([5]; raw product 25 ppm, 1st through 8th week): 60.3% | Incidence of diarrhea in test days ([5]; raw product 25 ppm, 1st through 8th week, of 224 test days): 135 days | Incidence of diarrhea, per cent of test days ([5]; raw product 25 ppm, 3rd and 4th week): 46.6% | Incidence of diarrhea in test days ([5]; raw product 25 ppm, 3rd and 4th week, of 56 test days): 26 days | Incidence of diarrhea, per cent of test days ([5]; raw product 25 ppm, 5th and 6th week): 69.6% | Incidence of diarrhea in test days ([5]; raw product 25 ppm, 5th and 6th week, of 56 test days): 39 days | Incidence of diarrhea, per cent of test days ([5]; raw product 25 ppm, 7th and 8th week): 76.8% | Incidence of diarrhea in test days ([5]; raw product 25 ppm, 7th and 8th week, of 56 test days): 43 days | Incidence of diarrhea, per cent of test days ([5]; raw product 50 ppm, 1st and 2nd week): 12.5% | Incidence of diarrhea in test days ([5]; raw product 50 ppm, 1st and 2nd week, of 56 test days): 7 days | Incidence of diarrhea, per cent of test days ([5]; raw product 50 ppm, 1st through 8th week): 19.1% | Incidence of diarrhea in test days ([5]; raw product 50 ppm, 1st through 8th week, of 224 test days): 43 days | Incidence of diarrhea, per cent of test days ([5]; raw product 50 ppm, 3rd and 4th week): 12.5% | Incidence of diarrhea in test days ([5]; raw product 50 ppm, 3rd and 4th week, of 56 test days): 7 days | Incidence of diarrhea, per cent of test days ([5]; raw product 50 ppm, 5th and 6th week): 28.6% | Incidence of diarrhea in test days ([5]; raw product 50 ppm, 5th and 6th week, of 56 test days): 16 days | Incidence of diarrhea, per cent of test days ([5]; raw product 50 ppm, 7th and 8th week): 23.2% | Incidence of diarrhea in test days ([5]; raw product 50 ppm, 7th and 8th week, of 56 test days): 13 days

MIC [1, 6]: 100 µg/mL
Compound: CCOc1ccc2nc3cc(N)ccc3c(N)c2c1 [Ethacridine lactate]
